Results from US6673937B2, “Syntheses and methods of use of new antimitotic agents” (The University of Pittsburgh, priority 2000, dated 2004).
pIC50, pKi: −log10 of the molar value. Read-outs that look alike come from different tables or passages of the source.

Legend:
60 cell line panel = details: read-out: average GI 50; cited from earlier work
Trx-1/TrxR [1] = target: T1, Trx-1/TrxR (Homo sapiens, UniProt P10599+Q16881); details: read-out: IC 50 as Trx-1/TrxR inhibitor; cited from earlier work
T1 sequence (P10599 1-105): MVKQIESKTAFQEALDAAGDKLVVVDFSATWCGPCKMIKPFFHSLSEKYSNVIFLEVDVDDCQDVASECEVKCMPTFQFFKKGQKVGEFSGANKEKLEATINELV
T1 sequence (Q16881 151-649 limits assumed): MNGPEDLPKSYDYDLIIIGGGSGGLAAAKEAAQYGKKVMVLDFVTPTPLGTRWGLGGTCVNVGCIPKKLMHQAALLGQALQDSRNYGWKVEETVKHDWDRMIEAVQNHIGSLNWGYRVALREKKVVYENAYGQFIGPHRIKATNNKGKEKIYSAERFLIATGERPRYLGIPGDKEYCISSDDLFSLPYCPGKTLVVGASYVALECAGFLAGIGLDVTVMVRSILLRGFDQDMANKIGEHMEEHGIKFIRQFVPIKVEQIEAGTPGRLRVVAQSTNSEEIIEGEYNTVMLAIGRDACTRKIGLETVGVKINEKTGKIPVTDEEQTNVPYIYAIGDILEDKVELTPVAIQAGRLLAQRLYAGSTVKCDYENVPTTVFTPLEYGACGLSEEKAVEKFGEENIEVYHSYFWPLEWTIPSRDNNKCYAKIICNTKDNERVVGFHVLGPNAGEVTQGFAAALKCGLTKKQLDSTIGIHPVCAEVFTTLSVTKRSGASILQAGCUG

[2] = target: thioredoxin reductases (TrxR); details: read-out: K; (thioredoxin reductase inhibition); cited from earlier work
garden cress = details: cited from earlier work
MDA-MB-231 cells = assay: Antiproliferative assay, MDA-MB-231 cells; assay type: cell-based, human
Description: MDA-MB-231 cells, which were also derived from an adenocarcinoma of the breast, are less differentiated than the MCF-7 cells and fail to express functional p53 or estrogen receptors. This class of tumor cells contains important targets for new therapies, because loss of estrogen receptor expression is associated with poor patient prognosis. (Osborne, C. K. Breast Cane. Res. Treatm. 1998, 51, 227).
The inventors extrapolated to determine the IC50 for compounds with little cytotoxicity at 30,μM, the highest concentration tested. […] The enhanced sensitivity of MCF-7 to these compounds may be due to the expression of p53 in these cells.
(§1) Two compounds, 24 referred to herein as SR-4 and 27 referred to herein as SR-7, were examined in greater detail as to their effects on biological activity. The proliferation of MCF-7, MDA-MB-231 and SV40 transformed mouse embryonic fibroblasts was measured by a previously described colorimetric assay (Wipf P, Jung J-K, Rodriguez S, Lazo JS Synthesis and biological evaluation of Deoxypreussomerin A and Palmarumycin CP 1 and related naphthoquinone spiroketals. Tetrahedron 57:283-296, 2001 and Vogt A, Rice RL, Settineri CE, Yokokawa F, Yokokawa S, Wipf P and Lazo JS (1998) Disruption of insulin-like growth factor-I signaling and down-regulation of Cdc2 by SC-ααδ9, a novel small molecule antisignaling agent identified in a targeted array library. J Pharmacol Exptl Therap 287:806-813.). Briefly, the inventors seeded 4,000-6,000 cells per well in microtiter plates. Cells were allowed to attach overnight and treated with vehicle or compounds for 72 h, after which the medium was replaced with serum free medium containing 0.1% 3-[4,5-dimethylthiazol-2-yl]-2,5-diphenyl tetrazolium bromide. Plates were incubated for 3 hours in the dark and total cell number was determined by spectrophotometrically at 540 nm as previously described (Vogt A, Rice RL, Settineri CE, Yokokawa F, Yokokawa S, Wipf P and Lazo JS (1998) Disruption of insulin-like growth factor-1 signaling and down-regulation of Cdc2 by SC-ααδ9, a novel small molecule antisignaling agent identified in a targeted array library. J Pharmacol Exptl Therap 287:806-813.). […] Cells were maintained in RPMI 1640 medium containing 10% fetal bovine serum and the paclitaxel-resistant cells also contained 17 nM paclitaxel and 10 μM verapamil. Cells were plated (2,000/well) in 96-well plates and allowed to attach and grow for 72 hours (paclitaxel and verapamil were removed from resistant cell medium two weeks prior to this plating). They were then treated with 0.5% DMSO vehicle control or 0.08-10 μM compound. The number of cells was determined spectrophotometrically at 490 nm minus absorbance at 630 nm after exposure to 3-(4,5-dimethylthiazol-2-yl)-5-(3-carboxymethoxyphenyl)-2-(4-sulfophenyl)-2H-tetrazolium and N-methyldibenzopyurazine methyl sulfate.
Because of the potential importance of the tumor suppressor gene p53 and the estrogen receptor in controlling the cellular response to cytotoxic agents, the inventors also examined the sensitivity of MDA-MB-231 cells, which lack functional p53 and estrogen receptors. […] As might be expected, these p53 and estrogen receptor deficient cells were generally less sensitive to both natural products and analogs when compared to MCF-7 cells.

VHR = VHR (Homo sapiens, UniProt P51452); assay: In vitro inhibition of VHR; assay type: biochemical; details: 30 μM, data not shown
Sequence of VHR (P51452 whole entry, species assumed): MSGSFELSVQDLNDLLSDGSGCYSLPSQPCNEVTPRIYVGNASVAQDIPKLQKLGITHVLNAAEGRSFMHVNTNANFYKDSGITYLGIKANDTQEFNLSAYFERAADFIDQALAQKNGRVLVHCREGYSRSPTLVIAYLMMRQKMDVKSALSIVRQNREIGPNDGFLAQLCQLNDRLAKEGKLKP

PTPIB = target: T2, PTPIB (Homo sapiens, UniProt P18031); assay: In vitro inhibition of PTPIB; assay type: biochemical; details: 30 μM, data not shown
T2 sequence (P18031 1-435): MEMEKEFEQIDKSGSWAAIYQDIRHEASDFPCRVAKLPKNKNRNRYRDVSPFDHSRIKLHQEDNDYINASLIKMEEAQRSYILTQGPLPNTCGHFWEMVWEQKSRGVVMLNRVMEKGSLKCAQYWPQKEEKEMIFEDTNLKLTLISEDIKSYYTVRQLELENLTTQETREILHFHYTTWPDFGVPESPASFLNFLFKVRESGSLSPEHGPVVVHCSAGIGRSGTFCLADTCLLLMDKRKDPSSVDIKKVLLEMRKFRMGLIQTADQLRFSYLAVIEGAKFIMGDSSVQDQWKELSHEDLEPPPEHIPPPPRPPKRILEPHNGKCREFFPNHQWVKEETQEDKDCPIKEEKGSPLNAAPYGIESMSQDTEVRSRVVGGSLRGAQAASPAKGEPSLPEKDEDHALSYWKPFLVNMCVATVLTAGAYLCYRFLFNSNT

Trx-1/TrxR [3] = target: T3, Trx-1/TrxR (Homo sapiens, UniProt P10599+Q16881); assay: Trx-1/TrxR-dependent insulin reducing assay; assay type: biochemical; details: calculated from 5 concentrations (0.1 to 50 μM)
T3 construct: Thioredoxin reductase was purified from human placenta as previously described; made in house
T3 sequence (P10599 1-105): T1 sequence (P10599 1-105)
T3 sequence (Q16881 1-499 isoform Q16881-5): T1 sequence (Q16881 151-649 limits assumed)
Description: Thioredoxin reductase was purified from human placenta as previously described (Oblong, J.E.; Gasdaska, P.Y.; Sherrill, K.; Powis,G. Biochemistry 1993, 32, 7271) and recombinant human Trx-1 was prepared as previously described (Gasdaska, P.Y.; Oblong, J.E.; Cotgreave, I.A.; Powis,G. Biochem.Biophys.Acta 1994 ,1218 ,292). TrxR and Trx-1/TrxR activities were measured spectrophotometrically using previously published microtiter plate colorimetric assays, based on the increase in absorbance at 405 nm which occurs as dithionitrobenzoic acid (DTNB) is reduced by the enzyme-mediated transfer of reducing equivalents from NADPH (Gasdaska et al., Biochem.Biophys.Acta 1994 ,1218,292). Trx-1/TrxR-dependent insulin reducing activity was measured in an incubation with a final volume of 60 μL containing 100 mM HEPES buffer, pH 7.2,5 mM EDTA (HE buffer),1 mM NADPH, […],0.8 μM Trx-1 and 2.5 mg/mL bovine insulin. Incubations were for 30 min at 37 ° C. in flat-bottom 96-well microtiter plates. The reaction was stopped by the addition of 100 μL of 6 M guanidine-HC1, 50 mM Tris, pH 8.0, and 10 mM DTNB, and the absorbance measured to 405 nm. TrxR activity was measured in a final incubation volume of 60 μL containing HE buffer, 10 mM DTNB, 1.0 μM TrxR and 1 mM NADPH. Compounds were diluted in HE buffer and added to the wells as 20 μL aliquots, and TrxR was then added,also as 20 μL aliquots in HE buffer. To start the reaction NADPH and DTNB were added as a 20 μL aliquot in HE buffer and the plate was moved to the plate reader which had been preheated to 37 ° C. The optical density at 405 nm was measured every 10 s and initial reaction rates were measured.

[4] = test system: mouse embryonic fibroblasts transformed with SV40 large T antigen; assay: Proliferation of SV40 transformed mouse embryonic fibroblasts; assay type: cell-based; details: 10 μM
Description: as §1, with “Cells were plated (2,000/well) in 96-well plates and allowed to attach and grow for 72 hours (paclitaxel and verapamil were removed from resistant cell medium two weeks prior to this plating). They were then treated with 0.5% DMSO vehicle control or 0.08-10 μM compound.” left out, “sulfate. […]” for “sulfate.”

recombinant Cdc25 = assay: In vitro inhibition of recombinant Cdc25; assay type: biochemical; details: 30 μM, data not shown

Question: With C[C@H]1CO[C@H]2C3=C(C(=O)C=CC3=O)[C@@H]3OC(=O)[C@H]4CC[C@@H]5[C@H]1CC[C@@]52[C@@H]43 [NSC401005] as the compound, how does the GI50 (60 cell line panel) read?
Answer: 21.5 µM

Question: What about the pIC50 (Trx-1/TrxR [1]) of the same compound?
Answer: 6.77

Question: With CC(=O)OC[C@H]1O[C@@H]([S-])[C@H](OC(C)=O)[C@@H](OC(C)=O)[C@@H]1OC(C)=O.CCP(CC)CC.[Au+] [auranofin] as the compound, how does the pKi [2] read?
Answer: 8.40

Question: For O=C1C=CC(=O)C23OC12C(=O)C1OC1C31Oc2cccc3cccc(c23)O1 (stereo not shown) [palmarumycin C9], which “germination and growth of garden cress” value (garden cress) is on record?
Answer: completely inhibited germination and growth

Question: Which “germination and growth of garden cress” value (garden cress) does the source give for O=C1C=CC(=O)[C@@]23O[C@@]12C(=O)C(Cl)=CC31Oc2cccc3cccc(c23)O1 [palmarumycin C4] here?
Answer: completely inhibited germination and growth

Question: With CC/C=C/CCOc1cccc2c1C(=O)C=CC21Oc2cccc3cccc(c23)O1 [SR-4, (E)-8-(hex-3-enyloxy)-1-oxo-1,4-dihydronaphthalene-4-spiro-2′-naphto [1″,8″-de][1′,3′] dioxin] as the compound, how does the “enhanced sensitivity of MDA-MB-231 cells compared to MCF-7 cells” value (MDA-MB-231 cells) read?
Answer: five fold enhanced sensitivity

Question: And the “sensitivity of MDA-MB-231 cells, in words” value (MDA-MB-231 cells; 72 hours, FIG. 23 Panel B)?
Answer: less active

Question: And the pIC50 (MDA-MB-231 cells; Homo sapiens, MDA-MB-231, 72 hours, read-out: MDA-MB-231 50% cell growth inhibition)?
Answer: 5.04

Question: And the “inhibition of VHR activity” value (VHR)?
Answer: no inhibition

Question: What about the “inhibition of PTPIB activity” value (PTPIB) of the same compound?
Answer: no inhibition

Question: And the pIC50 (Trx-1/TrxR [3])?
Answer: < 4.30

Question: And the “growth inhibition at highest concentration tested” value [4]?
Answer: no significant inhibition

Question: What about the “inhibition of recombinant Cdc25 activity” value (recombinant Cdc25) of the same compound?
Answer: no inhibition
